# Assay results from patent US10550105B2 (Ribon Therapeutics Inc., priority 2018, dated 2020).
# Biological target: PARP7 (Homo sapiens (Human), UniProt Q7Z3E1)
# Test: Enzymatic assay for inhibition of PARP7: TR-FRET displacement of biotinylated Probe A from the TIPARP active site
# Assay type: binding
# Details: Table A-1
# In short: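 Displacement of biotinylated Probe A from TIPARP was measured as the 665/615 nm time-resolved FRET ratio (excitation 320 nm, 90 μs delay) after a further 30 min at 25 °C. Inhibition across compound concentrations was fitted by dose-response regression, with the Hill slope free or fixed at 1 (3-parameter fit).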
# Sequence of PARP7 (Q7Z3E1 whole entry): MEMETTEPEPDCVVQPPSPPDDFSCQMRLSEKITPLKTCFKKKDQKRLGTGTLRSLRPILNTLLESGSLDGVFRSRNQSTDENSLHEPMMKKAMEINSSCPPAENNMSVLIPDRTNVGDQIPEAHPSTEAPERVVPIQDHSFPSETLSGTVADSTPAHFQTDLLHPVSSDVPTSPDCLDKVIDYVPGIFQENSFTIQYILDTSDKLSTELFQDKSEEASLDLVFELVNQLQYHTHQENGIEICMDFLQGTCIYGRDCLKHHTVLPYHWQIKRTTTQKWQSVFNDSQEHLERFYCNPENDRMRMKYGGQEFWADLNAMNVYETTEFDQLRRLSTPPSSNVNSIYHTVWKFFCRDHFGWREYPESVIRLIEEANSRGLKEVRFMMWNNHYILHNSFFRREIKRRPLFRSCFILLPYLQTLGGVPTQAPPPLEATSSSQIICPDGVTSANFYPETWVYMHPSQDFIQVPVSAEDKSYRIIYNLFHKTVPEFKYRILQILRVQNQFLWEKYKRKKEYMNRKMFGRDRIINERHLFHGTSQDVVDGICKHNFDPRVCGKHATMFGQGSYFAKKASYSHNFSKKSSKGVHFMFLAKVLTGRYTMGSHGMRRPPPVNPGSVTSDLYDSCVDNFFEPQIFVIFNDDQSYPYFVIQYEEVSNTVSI
row,SMILES,IC50 [nM]
1,"CC(O)c1cccc2c1CN(c1cn[nH]c(=O)c1C(F)(F)F)C2 (stereo not shown) [Example 278, 5-(4-(1-Hydroxyethyl)isoindolin-2-yl)-4-(trifluoromethyl)pyridazin-3(2H)-one]",100 to 1000
2,"N#Cc1ccc(N2CCN(C(=O)c3ccnc(OC[C@@H]4CCCN4c4cn[nH]c(=O)c4C(F)(F)F)n3)CC2)nc1 [Example 68, 6-[4-[(2-[[(2S)-1-[6-oxo-5-(trifluoromethyl)-1,6-dihydropyridazin-4-yl]pyrrolidin-2-yl]methoxy]pyrimidin-4-yl)carbonyl]piperazin-1-yl]pyridine-3-carbonitrile]",< 100
3,"COC[C@@H](COCCC(=O)N1CCN(c2cnc(Cl)cn2)CC1)Nc1cn[nH]c(=O)c1C(F)(F)F [Example 678, (S)-5-((1-(3-(4-(5-Chloropyrazin-2-yl)piperazin-1-yl)-3-oxopropoxy)-3-methoxypropan-2-yl)amino)-4-(trifluoromethyl)pyridazin-3(2H)-one]",< 100
4,"N#Cc1cnc(N2CCN(C(=O)c3cc(OCC4c5ccccc5CN4c4cn[nH]c(=O)c4C(F)(F)F)cnc3F)CC2)nc1 (stereo not shown) [Example 62, 2-(4-[[2-fluoro-5-([2-[6-oxo-5-(trifluoromethyl)-1,6-dihydropyridazin-4-yl]-2,3-dihydro-1H-isoindol-1-yl]methoxy)pyridin-3-yl]carbonyl]piperazin-1-yl)pyrimidine-5-carbonitrile]",< 100
5,"NCCOc1ccc2c(n1)CN(c1cn[nH]c(=O)c1C(F)(F)F)C2 [Example 317, 5-(2-(2-Aminoethoxy)-5,7-dihydro-6H-pyrrolo[3,4-b]pyridin-6-yl)-4-(trifluoromethyl)pyridazin-3(2H)-one formic acid]",100 to 1000
6,"N#Cc1ccc(N2CCN(C(=O)CCOC[C@@H]3c4ncccc4CN3c3cn[nH]c(=O)c3Cl)CC2)nc1 [Example 431, (S)-6-(4-(3-((6-(5-Chloro-6-oxo-1,6-dihydropyridazin-4-yl)-6,7-dihydro-5H-pyrrolo[3,4-b]pyridin-7-yl)methoxy)propanoyl)piperazin-1-yl)nicotinonitrile]",< 100
7,"CN1CCN(C(=O)CCOC[C@@H]2c3ccccc3CN2c2cn[nH]c(=O)c2C(F)(F)F)CC1 [Example 421, (S)-5-(1-((3-(4-Methylpiperazin-1-yl)-3-oxopropoxy)methyl)isoindolin-2-yl)-4-(trifluoromethyl)pyridazin-3(2H)-one]",100 to 1000
8,"N#Cc1ccc(N2CCN(C(=O)COCC[C@@H]3CCCN3c3cn[nH]c(=O)c3C(F)(F)F)CC2)nc1 [Example 88, (S)-6-(4-(2-(2-(1-(6-oxo-5-(trifluoromethyl)-1,6-dihydropyridazin-4-yl)pyrrolidin-2-yl)ethoxy)acetyl)piperazin-1-yl)nicotinonitrile]",< 100
9,"C[C@H](COCCC(=O)N1CCN(c2ccc(C#N)cn2)CC1)Oc1cn[nH]c(=O)c1C(F)(F)F [Example 530B, 6-(4-[3-[(2R)-2-[[6-Oxo-5-(trifluoromethyl)-1,6-dihydropyridazin-4-yl]oxy]propoxy]propanoyl]piperazin-1-yl)pyridine-3-carbonitrile]",100 to 1000
10,"O=c1[nH]ncc(N2Cc3cccc(Oc4ccncc4)c3C2)c1C(F)(F)F [Example 232, 5-(4-(pyridin-4-yloxy)isoindolin-2-yl)-4-(trifluoromethyl)pyridazin-3(2H)-one trifluoroacetic acid]",< 100
11,"C[C@@H](COCCC(=O)N1CCN(c2ccc(CC#N)cn2)CC1)Oc1cn[nH]c(=O)c1C(F)(F)F [Example 656, (S)-2-(6-(4-(3-(2-((6-Oxo-5-(trifluoromethyl)-1,6-dihydropyridazin-4-yl)oxy)propoxy)propanoyl)piperazin-1-yl)pyridin-3-yl)acetonitrile]",< 100
12,"N#Cc1ccc(N2CCN(C(=O)c3cccc(OCCc4cccc5c4CN(c4cn[nH]c(=O)c4C(F)(F)F)C5)c3)CC2)nc1 [Example 401, 6-(4-(3-(2-(2-(6-Oxo-5-(trifluoromethyl)-1,6-dihydropyridazin-4-yl)isoindolin-4-yl)ethoxy)benzoyl)piperazin-1-yl)nicotinonitrile]",< 100
13,"Cc1cnc(N2CCN(C(=O)CCOC[C@H](C)Oc3cn[nH]c(=O)c3C(F)(F)F)CC2)nc1 [Example 687, (S)-5-((1-(3-(4-(5-Methylpyrimidin-2-yl)piperazin-1-yl)-3-oxopropoxy)propan-2-yl)oxy)-4-(trifluoromethyl)pyridazin-3(2H)-one]",< 100
14,"O=C(C[C@@H]1CC[C@@H](CNc2cn[nH]c(=O)c2C(F)(F)F)O1)N1CCN(c2ccc(C(F)(F)F)cn2)CC1 (single isomer, unassigned) [Example 546 Isomer A]",< 100
15,"C[C@H](COc1cn[nH]c(=O)c1C(F)(F)F)OCCC(=O)N1CCN(c2ccc(Cl)cn2)CC1 (single isomer, unassigned) [Example 539 Isomer C]",< 100
16,"N#Cc1ccc(N2CCN(C(=O)C[C@H]3CCC[C@H](COc4cn[nH]c(=O)c4C(F)(F)F)O3)CC2)nc1 (single isomer, unassigned) [Example 583 Isomer B]",≥ 1000
17,"CN1CCC(Oc2ccc3c(n2)CN(c2cn[nH]c(=O)c2C(F)(F)F)C3)CC1 [Example 6, 5-[2-[(1-methylpiperidin-4-yl)oxy]-5H,6H,7H-pyrrolo[3,4-b]pyridin-6-yl]-4-(trifluoromethyl)-2,3-dihydropyridazin-3-one]",100 to 1000

row,SMILES,IC50 [nM]
1,"O=C(CCOC[C@@H](Nc1cn[nH]c(=O)c1C(F)(F)F)[C@H]1CCOC1)N1CCN(c2ncc(C(F)(F)F)cn2)CC1 (single isomer, unassigned; isomer c) [Example 614 Isomer C]",< 100
2,"C[C@H](CC(=O)N1CCN(c2ccc(C#N)cn2)CC1)OCCOc1cn[nH]c(=O)c1C(F)(F)F (single isomer, unassigned) [Example 538 Isomer A]",100 to 1000
3,"COC[C@@H](COCCC(=O)N1CCN(c2ncc(Cl)cn2)CC1)Oc1cn[nH]c(=O)c1C(F)(F)F (single isomer, unassigned)",< 100
4,"CN(CCOc1cccc2c1CN(c1cn[nH]c(=O)c1C(F)(F)F)C2)CCC(=O)N1CCN(c2ccc(C#N)cn2)CC1 [Example 493, 6-(4-(3-(Methyl(2-((2-(6-oxo-5-(trifluoromethyl)-1,6-dihydropyridazin-4-yl)isoindolin-4-yl)oxy)ethyl)amino)propanoyl)piperazin-1-yl)nicotinonitrile]",< 100
5,"O=c1[nH]ncc(N2Cc3cccc(OCCN4CCNCC4)c3C2)c1Cl [Example 220, 4-Chloro-5-(4-(2-(piperazin-1-yl)ethoxy)isoindolin-2-yl)pyridazin-3(2H)-one]",100 to 1000
6,"C[C@@H](COCCC(=O)N1CCC(Oc2ncc(C#N)s2)C1)Nc1cn[nH]c(=O)c1C(F)(F)F (stereo partly drawn) [Example 718, 2-((1-(3-((S)-2-((6-Oxo-5-(trifluoromethyl)-1,6-dihydropyridazin-4-yl)amino)propoxy)propanoyl)pyrrolidin-3-yl)oxy)thiazole-5-carbonitrile]",< 100
7,"CC(=O)N1CCC(Oc2cccc3c2CN(c2cn[nH]c(=O)c2C(F)(F)F)C3)CC1 [Example 225, 5-(4-((1-Acetylpiperidin-4-yl)oxy)isoindolin-2-yl)-4-(trifluoromethyl)pyridazin-3(2H)-one]",< 100
8,"O=c1[nH]ncc(N2Cc3cccc(CNc4ccncc4)c3C2)c1C(F)(F)F [Example 339, 5-(4-((Pyridin-4-ylamino)methyl)isoindolin-2-yl)-4-(trifluoromethyl)pyridazin-3(2H)-one]",< 100
9,"O=C(CCOC[C@H](Nc1cn[nH]c(=O)c1C(F)(F)F)[C@H]1CCOC1)N1CCN(c2ncc(C(F)(F)F)cn2)CC1 (single isomer, unassigned) [Example 614 Isomer B]",< 100
10,"C[C@H](COCCC(=O)N1CCN(c2ccc(C#N)cn2)CC1)Nc1cn[nH]c(=O)c1C(F)(F)F [Example 513B, (R)-6-(4-(3-(2-(6-Oxo-5-(trifluoromethyl)-1,6-dihydropyridazin-4-ylamino)propoxy)propanoyl)piperazin-1-yl)nicotinonitrile]",100 to 1000
11,"O=c1[nH]ncc(N2Cc3cc(F)c(OCCN4CCOCC4)cc3C2)c1C(F)(F)F [Example 19, 5-[5-fluoro-6-[2-(morpholin-4-yl)ethoxy]-2,3-dihydro-1H-isoindol-2-yl]-4-(trifluoromethyl)-2,3-dihydropyridazin-3-one]",< 100
12,"O=C(CCOC[C@@H]1CCCN1c1cn[nH]c(=O)c1C(F)(F)F)N1CCN(c2ncccn2)CC1 [Example 456, (S)-5-(2-((3-Oxo-3-(4-(pyrimidin-2-yl)piperazin-1-yl)propoxy)methyl)pyrrolidin-1-yl)-4-(trifluoromethyl)pyridazin-3(2H)-one]",< 100
13,N#Cc1ccc(N2CCN(C(=O)c3cccc(OC[C@@H]4CCCN4c4cn[nH]c(=O)c4C(F)(F)F)c3)C(CO)C2)nc1 (stereo partly shown) [Example 33],< 100
14,"C[C@@H](COCCC(=O)N1CCN(c2ncc(C(F)(F)F)s2)CC1)Oc1cn[nH]c(=O)c1C(F)(F)F [Example 708, (S)-5-((1-(3-Oxo-3-(4-(5-(trifluoromethyl)thiazol-2-yl)piperazin-1-yl)propoxy)propan-2-yl)oxy)-4-(trifluoromethyl)pyridazin-3(2H)-one]",< 100
15,"N#CCc1ccc(N2CCN(C(=O)c3cccc(OC[C@@H]4CCCN4c4cn[nH]c(=O)c4C(F)(F)F)c3)CC2)cc1 [Example 453, (S)-2-(4-(4-(3-((1-(6-Oxo-5-(trifluoromethyl)-1,6-dihydropyridazin-4-yl)pyrrolidin-2-yl)methoxy)benzoyl)piperazin-1-yl)phenyl)acetonitrile]",< 100
16,"C[C@H](COCCC(=O)N1CCN(c2ncc(Cl)cn2)CC1)Nc1cn[nH]c(=O)c1C(F)(F)F [Example 556, 5-[[(2R)-1-[3-[4-(5-Chloropyrimidin-2-yl)piperazin-1-yl]-3-oxopropoxy]propan-2-yl]amino]-4-(trifluoromethyl)-2,3-dihydropyridazin-3-one]",100 to 1000
17,"CC[C@@H](COCCC(=O)N1CCN(c2ncc(Cl)cn2)CC1)Oc1cn[nH]c(=O)c1C(F)(F)F (single isomer, unassigned) [Example 591 Isomer A]",< 100
